Experimental findings from patent US12369578B2, “Use of a nematicide composition” (DESARROLLO AGRICOLA Y MINERO, S.A., priority 2019, dated 2025) are described below.

For data set [1], the system named is M. incognita. The experiment in a line: Juvenile (J2) mortality, laboratory test in sterile water. It is filed as in vivo. The settings on record: all concentrations (0.025%, 0.05%, 0.1%), in less than 24 h. An excerpt: (§1) The aim of the protocol was to evaluate the nematicidal efficacy of the formulation and of the active ingredients, cinnamic aldehyde and terpene alcohol, separately. For this trial M. incognita and M. javanica nematodes were used.
(§2) • 1. Untreated control specimen: Eggs or juvenile nematodes in sterile water. • 2. Eggs or juveniles with 0.025% of the formulation in sterile water. • 3. Eggs or juveniles with 0.05% of the formulation in sterile water. • 4. Eggs or juveniles with 0.1% of the formulation in sterile water. • 5. Eggs or juveniles with 0.025% of terpene alcohol in sterile water plus innocuous solvent. • 6. Eggs or juveniles with 0.05% of terpene alcohol in sterile water plus innocuous solvent. • 7. Eggs or juveniles with 0.1% of terpene alcohol in sterile water plus innocuous solvent. • 8. Eggs or juveniles with 0.025% of cinnamic aldehyde in sterile water plus innocuous solvent. • 9. Eggs or juveniles with 0.05% of cinnamic aldehyde in sterile water plus innocuous solvent. • 10. Eggs or juveniles with 0.1% of cinnamic aldehyde in sterile water plus innocuous solvent. Results:
(§3) The treatments with juveniles hatched at 0 h, 24 h, 48 h and 72 h. The number of hatched eggs was determined approximately every 72 h for 3-4 weeks. […]

The test system of data set [2] is M. incognita. The data set is described as follows: Egg hatching, laboratory test in sterile water. It is filed as in vivo. To be noted: M. incognita eggs; 0.025%, 0.05%, 0.1%; counts about every 72 h for 3-4 weeks.
Text: as §1, §2, §3

Regarding `O=C/C=C/c1ccccc1` [cinnamic aldehyde, (2E)-3-phenylprop-2-enal], the “mortality of J2” value with M. incognita [1] is on record as 100%. Further, the egg hatching entry in the data set with M. incognita [2] was “inhibited the hatching of juveniles”.
